Structures can show the parent of a compound that is named as a salt.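 Dose response: 5 concentrations. Exposure: 48 h. Format: 96-well plates. Endpoint: linear interpolation; highest concentration if not reached. The concentration for 50% growth inhibition is given as GI50.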 Activity calls are given as the source filed them. Rule as the data show it: active = GI50 up to about 1.1 µM and inactive = higher.
Columns and labels:
Test in all cases: DTP human tumour cell line panel, 48 h
786-0 = system: 786-0
A498 = system: A498
A549 = system: A549
HL-60 = system: HL-60
MCF7 = system: MCF7
MDA-MB-231 = system: MDA-MB-231
NCI-H226 = system: NCI-H226
NCI-H522 = system: NCI-H522
NCI/ADR-RES = system: NCI/ADR-RES
PC-3 = system: PC-3
RXF 393 = system: RXF 393
SF-268 = system: SF-268
SK-MEL-2 = system: SK-MEL-2
SK-MEL-5 = system: SK-MEL-5
SNB-19 = system: SNB-19
TK-10 = system: TK-10
U-251 = system: U-251
UO-31 = system: UO-31
SK-OV-3 = system: SK-OV-3

| Structure (SMILES) | GI50 (786-0) | GI50 (A498) | GI50 (A549) | GI50 (HL-60) | GI50 (MCF7) | GI50 (MDA-MB-231) | GI50 (NCI-H226) | GI50 (NCI-H522) | GI50 (NCI/ADR-RES) | GI50 (PC-3) | GI50 (RXF 393) | GI50 (SF-268) | GI50 (SK-MEL-2) | GI50 (SK-MEL-5) | GI50 (SNB-19) | GI50 (TK-10) | GI50 (U-251) | GI50 (UO-31) | GI50 (SK-OV-3) |
| --- | --- | --- | --- | --- | --- | --- | --- | --- | --- | --- | --- | --- | --- | --- | --- | --- | --- | --- | --- |
| N=C(N)N/N=C\c1c(-c2cccc([N+](=O)[O-])c2)nc2sc(Cl)cn12 | 3.27 µM (inactive) | 27.4 µM (inactive) | 2.84 µM (inactive) | 2 µM (inactive) | 2.61 µM (inactive) | 2.74 µM (inactive) | 53.2 µM (inactive) | 1.98 µM (inactive) | > 100 µM (inactive) | 2.13 µM (inactive) | 2.19 µM (inactive) | 3.06 µM (inactive) | 1.96 µM (inactive) | 24.4 µM (inactive) | 2.45 µM (inactive) | 2.38 µM (inactive) | 3.17 µM (inactive) | 1.71 µM (inactive) |  |
| O=c1cc(-c2ccccc2F)[nH]c2ccc(N3CCCC3)cc12 | 0.0442 µM (active) | 0.0215 µM (active) | 0.0504 µM (active) | > 100 µM (inactive) | 0.00745 µM (active) | 0.00122 µM (active) |  | 0.0326 µM (active) | 0.0352 µM (active) | < 0.001 µM (active) | 13 µM (inactive) | 0.0363 µM (active) | 0.0167 µM (active) | 0.0419 µM (active) | 0.0214 µM (active) | 0.237 µM (active) | 0.0381 µM (active) | 0.00274 µM (active) | > 100 µM (inactive) |
| C/C(=N\Nc1ccccc1Br)c1cccc(/C(C)=N/Nc2ccccc2Br)n1 | 84.5 µM (inactive) | 45.9 µM (inactive) | > 100 µM (inactive) | > 100 µM (inactive) | 54.1 µM (inactive) | 43.4 µM (inactive) | > 100 µM (inactive) |  | > 100 µM (inactive) | 42.8 µM (inactive) | 19.7 µM (inactive) | 59 µM (inactive) | 39 µM (inactive) | > 100 µM (inactive) | 63.1 µM (inactive) | 69.7 µM (inactive) | > 100 µM (inactive) | > 100 µM (inactive) |  |
| CN1CCOC1c1ccccc1O (configuration not stated) | > 100 µM (inactive) | > 100 µM (inactive) | > 100 µM (inactive) |  | > 100 µM (inactive) | > 100 µM (inactive) | > 100 µM (inactive) | > 100 µM (inactive) | > 100 µM (inactive) | > 100 µM (inactive) | > 100 µM (inactive) | > 100 µM (inactive) | > 100 µM (inactive) | > 100 µM (inactive) | > 100 µM (inactive) | > 100 µM (inactive) | > 100 µM (inactive) | > 100 µM (inactive) | > 100 µM (inactive) |
| CC(CN1c2ccccc2Sc2ccccc21)N(C)C (configuration not stated) [PROMETHAZINE HYDROCHLORIDE] | 14.8 µM (inactive) | 19.6 µM (inactive) | 20 µM (inactive) | 22.7 µM (inactive) | 25.8 µM (inactive) | 17.9 µM (inactive) | 19.1 µM (inactive) | 19.8 µM (inactive) | 15.8 µM (inactive) | 15.8 µM (inactive) | 20.8 µM (inactive) | 17.5 µM (inactive) | 18 µM (inactive) | 21.1 µM (inactive) | 17.4 µM (inactive) |  | 14.2 µM (inactive) | 17.9 µM (inactive) | 18.3 µM (inactive) |
| CCC1(C)C=Cc2c(cc(OC)c3c(=O)c4ccccc4n(C)c23)O1 (configuration not stated) | 5.27 µM (inactive) | > 10 µM (inactive) | 3.94 µM (inactive) |  | 0.785 µM (active) | > 10 µM (inactive) | > 10 µM (inactive) | > 10 µM (inactive) | > 10 µM (inactive) | > 10 µM (inactive) | 2.44 µM (inactive) | > 10 µM (inactive) | > 10 µM (inactive) | > 10 µM (inactive) | > 10 µM (inactive) | > 10 µM (inactive) | > 10 µM (inactive) | 1.15 µM (inactive) | > 10 µM (inactive) |
| C=C1c2nc3ccccc3n2C=C(c2ccccc2)N1c1ccccc1 | > 100 µM (inactive) | 65.3 µM (inactive) | 30.3 µM (inactive) | 58.7 µM (inactive) | 14.6 µM (inactive) | > 100 µM (inactive) | 57.4 µM (inactive) | 15.8 µM (inactive) | 34 µM (inactive) | 34.3 µM (inactive) | 22.4 µM (inactive) |  | 73.5 µM (inactive) | 17.1 µM (inactive) | 40.4 µM (inactive) | 49 µM (inactive) | 58.6 µM (inactive) | 25.7 µM (inactive) | > 100 µM (inactive) |
| C/C(=N\n1c(Cc2ccccc2)n[nH]c1=O)c1ccccc1 | > 100 µM (inactive) | > 100 µM (inactive) | > 100 µM (inactive) | > 100 µM (inactive) | > 100 µM (inactive) | > 100 µM (inactive) | > 100 µM (inactive) | > 100 µM (inactive) | > 100 µM (inactive) | > 100 µM (inactive) | > 100 µM (inactive) | > 100 µM (inactive) | > 100 µM (inactive) | > 100 µM (inactive) | > 100 µM (inactive) | > 100 µM (inactive) | > 100 µM (inactive) | > 100 µM (inactive) |  |
| O=S(=O)(Oc1ccc2ccccc2c1-c1c(OS(=O)(=O)C(F)(F)F)ccc2ccccc12)C(F)(F)F | > 100 µM (inactive) | 26.4 µM (inactive) | 35 µM (inactive) | 11.3 µM (inactive) | > 100 µM (inactive) | 42.7 µM (inactive) | 79.1 µM (inactive) | 37.7 µM (inactive) | 84.5 µM (inactive) | 12.7 µM (inactive) | 43.4 µM (inactive) | > 100 µM (inactive) | > 100 µM (inactive) | 7.01 µM (inactive) | > 100 µM (inactive) |  | 32.1 µM (inactive) | 37.8 µM (inactive) | > 100 µM (inactive) |
| C[C@]12CCC3c4ccc(O)cc4CC[C@H]3C1CC(=O)NC2=O (some centres not stated) | > 10 µM (inactive) | > 10 µM (inactive) | > 10 µM (inactive) | > 10 µM (inactive) | > 10 µM (inactive) | > 10 µM (inactive) | > 10 µM (inactive) |  | > 10 µM (inactive) | > 10 µM (inactive) | > 10 µM (inactive) | > 10 µM (inactive) | > 10 µM (inactive) | > 10 µM (inactive) | > 10 µM (inactive) | > 10 µM (inactive) | > 10 µM (inactive) | > 10 µM (inactive) | > 10 µM (inactive) |
| O=[N+]([O-])c1ccc(N/N=C2/CC3=C2CCCCCCCCCC3)c([N+](=O)[O-])c1 | 80.9 µM (inactive) | 88.9 µM (inactive) | > 100 µM (inactive) |  | > 100 µM (inactive) | 32.7 µM (inactive) | > 100 µM (inactive) | > 100 µM (inactive) | > 100 µM (inactive) | > 100 µM (inactive) | > 100 µM (inactive) | > 100 µM (inactive) | > 100 µM (inactive) | > 100 µM (inactive) | > 100 µM (inactive) | 94.4 µM (inactive) | > 100 µM (inactive) | > 100 µM (inactive) | > 100 µM (inactive) |
